{"source": "patent EP1844786A1", "about": "“Extracts of Curcuma longa and their cosmetic and dermatological uses” (EXSYMOL S.A.M., priority 2006, dated 2007)", "test_system": "métabolisation de la testostérone dans des épidermes reconstruits d'origine humaine", "experiment": "Effect on testosterone metabolisation in reconstructed human epidermis (Test 1; labelled testosterone, silica-plate chromatography, radioactivity counting)", "assay_type": "cell-based", "conditions": "10^-4M; for inhibition at 100 µM: relative to untreated control, 24 h, mean of 3 epidermes", "text": "Test 1 : mise en évidence de l'effet d'un extrait de Curcuma longa sur la métabolisation de la testostérone dans des épidermes reconstruits d'origine humaine (fournisseur : SkinEthic®).\nCes épidermes constituent un matériel biologique présentant une forte homologie avec l'épiderme humain, et permettant de tester de manière réaliste un produit destiné à être appliqué à la surface de la peau. Un extrait glycolique de feuilles de Curcuma longa a donc été testé, à différentes concentrations. Leur action a par ailleurs été comparée à celle d'un inhibiteur spécifique de la 5-alpha-réductase, le Finastéride® (molécule de référence dans ce type d'évaluation). Des épidermes reconstruits de 17 jours ont ainsi été pré-cultivés en plaque 24 puits, pendant 24 heures. Puis 100 µl de testostérone marquée ont été déposés sur la face cornée de chaque épiderme. Après 24 nouvelles heures, les milieux de culture ont été prélevés pour analyse. Il est alors regardé la métabolisation de la testostérone par chromatographie sur plaque de silice et par comptage direct de la radioactivité des différents spots, à l'aide du logiciel \"Optiquant version 3 (packard)\". Différents métabolites, et en particulier la dihydrotestostérone (DHT), sont identifiés à l'aide de standards. Chaque point est la moyenne de 3 mesures effectuées sur des épidermes différents.", "note": "Where two headings read alike, the source gives them in different places.", "data": [{"compound": "CC(C)(C)NC(=O)[C@H]1CC[C@H]2[C@@H]3CC[C@H]4NC(=O)C=C[C@]4(C)[C@H]3CC[C@]12C", "note": "[Finastéride]", "values": [{"measurement": "inhibition at 100 µM", "setting": "read-out: % inhibition métabolisation testostérone", "result": 54, "unit": "%"}, {"measurement": "inhibition at 100 µM", "setting": "read-out: % inhibition transformation en DHT", "result": 92, "unit": "%"}, {"measurement": "Ratio DHT/testo.", "setting": "untreated control 2,2", "result": "0,1"}]}]}
